The source of these data is patent publication US8329904B2, “Azacyclic derivatives” (Hoffmann-La Roche Inc., priority 2009, dated 2012).

In the experiment the target is T1, human HSL (Homo sapiens, UniProt Q05469).
T1 construct: overlapping PCR to generate a full length human HSL ORF with a 3′-His6 tag; His6 (C); made in house; host or cells: High 5 insect cells (baculovirus, pFast-BAC)
T1 sequence (Q05469 1-1076): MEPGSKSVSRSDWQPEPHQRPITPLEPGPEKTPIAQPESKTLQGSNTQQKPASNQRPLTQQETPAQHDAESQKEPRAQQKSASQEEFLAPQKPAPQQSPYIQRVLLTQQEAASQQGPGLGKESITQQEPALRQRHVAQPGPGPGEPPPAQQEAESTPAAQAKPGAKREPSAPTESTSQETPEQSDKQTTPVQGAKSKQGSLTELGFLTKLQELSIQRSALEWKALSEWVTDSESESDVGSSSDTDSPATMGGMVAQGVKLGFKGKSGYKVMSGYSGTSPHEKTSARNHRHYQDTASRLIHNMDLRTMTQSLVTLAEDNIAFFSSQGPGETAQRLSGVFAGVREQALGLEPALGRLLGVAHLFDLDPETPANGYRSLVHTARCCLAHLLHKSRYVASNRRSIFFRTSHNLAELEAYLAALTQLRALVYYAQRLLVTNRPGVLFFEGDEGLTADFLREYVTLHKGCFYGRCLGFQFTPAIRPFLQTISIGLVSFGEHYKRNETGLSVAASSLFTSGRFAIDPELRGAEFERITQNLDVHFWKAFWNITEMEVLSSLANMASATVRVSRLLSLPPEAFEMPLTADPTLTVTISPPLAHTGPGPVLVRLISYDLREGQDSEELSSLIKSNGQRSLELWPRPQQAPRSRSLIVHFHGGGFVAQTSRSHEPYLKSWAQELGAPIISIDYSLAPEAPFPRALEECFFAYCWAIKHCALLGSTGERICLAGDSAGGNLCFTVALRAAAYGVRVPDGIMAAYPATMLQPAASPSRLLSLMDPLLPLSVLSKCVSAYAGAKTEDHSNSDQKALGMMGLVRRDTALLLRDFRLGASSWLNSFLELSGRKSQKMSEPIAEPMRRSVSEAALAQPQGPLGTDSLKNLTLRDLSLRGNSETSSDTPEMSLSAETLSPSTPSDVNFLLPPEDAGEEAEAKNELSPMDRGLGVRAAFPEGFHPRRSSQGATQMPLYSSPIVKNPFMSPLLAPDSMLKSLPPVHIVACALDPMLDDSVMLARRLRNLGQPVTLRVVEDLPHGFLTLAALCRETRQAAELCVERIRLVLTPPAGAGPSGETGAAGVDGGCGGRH
The experiment is described as follows: Human Hormone-Sensitive Lipase (HSL) Enzyme Inhibition Assay. The format is biochemical. Particulars: colorimetric assay, 2,3-dimercapto-1-propanol tributyrate (DMPT) substrate, 37° C. for 20 minutes, absorbance at 405 nm; read-out: HSL hum IC50. The procedure, abridged:
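Colorimetric thioester hydrolysis: compounds in DMSO series mixed with DMPT (1.5 mM) in MOPS pH 7.2 with BSA, then baculovirus-expressed His6-tagged full-length human HSL added, 37° C, 20 min. DTNB plus detergents added, 15 min room temperature, absorbance at 405 nm.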
Regarding `CCc1ccc(N2CCC3(CCN(S(=O)(=O)c4ccc(F)cc4C(F)(F)F)CC3)C2=O)cc1` [Example 75, 2-(4-Ethyl-phenyl)-8-(4-fluoro-2-trifluoromethyl-benzenesulfonyl)-2,8-diaza-spiro[4.5]decan-1-one], the IC50 worked out at 0.26 µM.

In the case of `O=C1N(c2ccc(OC(F)(F)F)cc2)CCC12CCN(S(=O)(=O)c1ccc(F)cc1C(F)(F)F)CC2` [Example 76, 8-(4-Fluoro-2-trifluoromethyl-benzenesulfonyl)-2-(4-trifluoromethoxy-phenyl)-2,8-diaza-spiro[4.5]decan-1-one], the IC50 was found to be 0.19 µM. Next, `O=C1N(c2ccc(C3CC3)cc2)CCC12CCN(S(=O)(=O)c1ccc(C(F)(F)F)cc1Cl)CC2` [Example 77, 8-(2-Chloro-4-trifluoromethyl-benzenesulfonyl)-2-(4-cyclopropyl-phenyl)-2,8-diaza-spiro[4.5]decan-1-one]: 0.18 µM; `O=C1N(c2ccc(CC(F)(F)F)cc2)CCC12CCN(S(=O)(=O)c1ccccc1OC(F)(F)F)CC2` [Example 78, 2-[4-(2,2,2-Trifluoro-ethyl)-phenyl]-8-(2-trifluoromethoxy-benzenesulfonyl)-2,8-diaza-spiro[4.5]decan-1-one]: 0.03 µM; `O=C1N(c2ccc(OCC(F)(F)F)cc2)CCC12CCN(S(=O)(=O)c1ccccc1OC(F)(F)F)CC2` [Example 79, 2-[4-(2,2,2-Trifluoro-ethoxy)-phenyl]-8-(2-trifluoromethoxy-benzenesulfonyl)-2,8-diaza-spiro[4.5]decan-1-one]: 0.04 µM. `O=C1N(c2ccc(OS(=O)(=O)C3CC3)cc2)CCC12CCN(S(=O)(=O)c1ccccc1OC(F)(F)F)CC2` [Example 80, Cyclopropanesulfonic acid 4-[1-oxo-8-(2-trifluoromethoxy-benzenesulfonyl)-2,8-diaza-spiro[4.5]dec-2-yl]-phenyl ester]: the IC50 was found to be 0.05 µM. Turning to `O=C1N(c2ccc(CC(F)(F)F)cc2)CCC12CCN(S(=O)(=O)c1ccc(F)cc1C(F)(F)F)CC2` [Example 81, 8-(4-Fluoro-2-trifluoromethyl-benzenesulfonyl)-2-[4-(2,2,2-trifluoro-ethyl)-phenyl]-2,8-diaza-spiro[4.5]decan-1-one], the 50% inhibitory concentration (IC50) was determined as 0.09 µM.

With `O=C1N(c2ccc(C3CC3)cc2)CCC12CCN(S(=O)(=O)c1ccccc1OC(F)(F)F)CC2` [Example 82, 2-(4-Cyclopropyl-phenyl)-8-(2-trifluoromethoxy-benzenesulfonyl)-2,8-diaza-spiro[4.5]decan-1-one], the IC50 stood at 0.11 µM. Next, `CS(=O)(=O)Oc1ccc(N2CCC3(CCN(S(=O)(=O)c4ccc(F)cc4C(F)(F)F)CC3)C2=O)cc1` [Example 83, Methanesulfonic acid 4-[8-(4-fluoro-2-trifluoromethyl-benzenesulfonyl)-1-oxo-2,8-diaza-spiro[4.5]dec-2-yl]-phenyl ester]: 0.04 µM; `CCCCOc1ccc(N2CCC3(CCN(S(=O)(=O)CC(C)C)CC3)C2=O)cc1` [Example 84, 2-(4-Butoxy-phenyl)-8-(2-methyl-propane-1-sulfonyl)-2,8-diaza-spiro[4.5]decan-1-one]: 0.2 µM. In the case of `CCC(C)Oc1ccc(N2CCC3(CCN(S(=O)(=O)CC(C)C)CC3)C2=O)cc1` (stereo not drawn) [Example 85, 2-(4-sec-Butoxy-phenyl)-8-(2-methyl-propane-1-sulfonyl)-2,8-diaza-spiro[4.5]decan-1-one], the IC50 stood at 0.1 µM. In the case of `CC(C)CS(=O)(=O)N1CCC2(CCN(c3ccc(OC(C)C(F)(F)F)cc3)C2=O)CC1` (stereo not drawn) [Example 86, 8-(2-Methyl-propane-1-sulfonyl)-2-[4-(2,2,2-trifluoro-1-methyl-ethoxy)-phenyl]-2,8-diaza-spiro[4.5]decan-1-one], the IC50 was determined as 0.08 µM.

Regarding `CC(C)Oc1ccc(N2CCC3(CCN(S(=O)(=O)c4ccccc4OC(F)(F)F)CC3)C2=O)cc1` [Example 87, 2-(4-Isopropoxy-phenyl)-8-(2-trifluoromethoxy-benzenesulfonyl)-2,8-diaza-spiro[4.5]decan-1-one], the IC50 turned out to be 0.02 µM. Consider `CCCCOc1ccc(N2CCC3(CCN(S(=O)(=O)c4ccccc4OC(F)(F)F)CC3)C2=O)cc1` [Example 88, 2-(4-Butoxy-phenyl)-8-(2-trifluoromethoxy-benzenesulfonyl)-2,8-diaza-spiro[4.5]decan-1-one], for which the IC50 came out at 0.05 µM. Next, `CC(Oc1ccc(N2CCC3(CCN(S(=O)(=O)c4ccccc4OC(F)(F)F)CC3)C2=O)cn1)C(F)(F)F` (stereo not drawn) [Example 89, 8-(2-Trifluoromethoxy-benzenesulfonyl)-2-[6-(2,2,2-trifluoro-1-methyl-ethoxy)-pyridin-3-yl]-2,8-diaza-spiro[4.5]decan-1-one]: 0.03 µM. For the compound `CCC(C)Oc1ccc(N2CCC3(CCN(S(=O)(=O)c4ccccc4OC(F)(F)F)CC3)C2=O)cc1` (stereo not drawn) [Example 90, 2-(4-sec-Butoxy-phenyl)-8-(2-trifluoromethoxy-benzenesulfonyl)-2,8-diaza-spiro[4.5]decan-1-one], the IC50 worked out at 0.02 µM.

On to `C=Cc1ccc(N2CCC3(CCN(S(=O)(=O)c4ccccc4Cl)CC3)C2=O)cc1` [Example 91, 8-(2-Chloro-benzenesulfonyl)-2-(4-vinyl-phenyl)-2,8-diaza-spiro[4.5]decan-1-one], for which the IC50 turned out to be 0.04 µM. For `CC(C)Oc1ccc(N2CCC3(CCN(S(=O)(=O)CC4CCC4)CC3)C2=O)cc1` [Example 92, 8-Cyclobutylmethanesulfonyl-2-(4-isopropoxy-phenyl)-2,8-diaza-spiro[4.5]decan-1-one], the IC50 stood at 0.17 µM. As for `O=C1N(c2ccc(OC(F)(F)F)cc2)CCC12CCN(S(=O)(=O)CC1CCC1)CC2` [Example 93, 8-Cyclobutylmethanesulfonyl-2-(4-trifluoromethoxy-phenyl)-2,8-diaza-spiro[4.5]decan-1-one], the IC50 was found to be 0.09 µM. For `CC(C)CS(=O)(=O)N1CCC2(CCN(c3ccc(OCC4CC4)cc3)C2=O)CC1` [Example 94, 2-(4-Cyclopropylmethoxy-phenyl)-8-(2-methyl-propane-1-sulfonyl)-2,8-diaza-spiro[4.5]decan-1-one], the IC50 came to 0.27 µM. `CC(C)Oc1ccc(N2CCC3(CCN(S(=O)(=O)C4CC4)CC3)C2=O)cc1` [Example 95, 8-Cyclopropanesulfonyl-2-(4-isopropoxy-phenyl)-2,8-diaza-spiro[4.5]decan-1-one]: the IC50 was 0.36 µM. Regarding `O=C1N(c2ccc(OC(F)(F)F)cc2)CCC12CCN(S(=O)(=O)C1CC1)CC2` [Example 96, 8-Cyclopropanesulfonyl-2-(4-trifluoromethoxy-phenyl)-2,8-diaza-spiro[4.5]decan-1-one], the IC50 was found to be 0.13 µM. As to `Cc1noc(C)c1S(=O)(=O)N1CCC2(CCN(c3ccc(OC(C)C(F)(F)F)cc3)C2=O)CC1` (stereo not drawn) [Example 97, 8-(3,5-Dimethyl-isoxazole-4-sulfonyl)-2-[4-(2,2,2-trifluoro-1-methyl-ethoxy)-phenyl]-2,8-diaza-spiro[4.5]decan-1-one], the IC50 came to 0.11 µM. Turning to `CC(Oc1ccc(N2CCC3(CCN(S(=O)(=O)C4CC4)CC3)C2=O)cc1)C(F)(F)F` (stereo not drawn) [Example 98, 8-Cyclopropanesulfonyl-2-[4-(2,2,2-trifluoro-1-methyl-ethoxy)-phenyl]-2,8-diaza-spiro[4.5]decan-1-one], the IC50 is 0.17 µM.

The IC50 is the concentration needed to halve the response being measured.
